# According to patent publication EP1202975B1, “SUBSTITUTED POLYCYCLIC ARYL AND HETEROARYL PYRAZINONES USEFUL FOR SELECTIVE INHIBITION OF THE COAGULATION CASCADE” (Pharmacia Corporation, priority 1999, dated 2000):
# pIC50: −log10 of the molar value. Read-outs that look alike come from different tables or passages of the source.
# Experiments:
# TF-VIIa = target: T1, TF-VIIa (Homo sapiens, UniProt P08709); assay: TF-VIIa Assay; type: biochemical
# T1 construct: 2nM recombinant human factor VIIa; purchased American Diagnostica, Greenwich CT; host or cells: soluble TF made in house in E. coli
# T1 sequence (P08709 213-466 limits assumed): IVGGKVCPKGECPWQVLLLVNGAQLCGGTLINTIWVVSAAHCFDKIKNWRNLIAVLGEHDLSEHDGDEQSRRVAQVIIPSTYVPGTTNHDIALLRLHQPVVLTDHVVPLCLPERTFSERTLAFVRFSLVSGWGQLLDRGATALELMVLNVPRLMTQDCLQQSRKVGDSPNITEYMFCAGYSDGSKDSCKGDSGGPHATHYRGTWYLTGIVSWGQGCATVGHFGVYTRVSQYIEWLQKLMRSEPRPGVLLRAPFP
# T1 sequence (P08709 61-212 limits assumed): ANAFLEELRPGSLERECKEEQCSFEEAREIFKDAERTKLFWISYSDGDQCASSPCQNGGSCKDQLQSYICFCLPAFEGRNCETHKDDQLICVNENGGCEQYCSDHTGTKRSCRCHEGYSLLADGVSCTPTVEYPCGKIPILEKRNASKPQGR
# T1 sequence (P13726 33-251 partner limits assumed): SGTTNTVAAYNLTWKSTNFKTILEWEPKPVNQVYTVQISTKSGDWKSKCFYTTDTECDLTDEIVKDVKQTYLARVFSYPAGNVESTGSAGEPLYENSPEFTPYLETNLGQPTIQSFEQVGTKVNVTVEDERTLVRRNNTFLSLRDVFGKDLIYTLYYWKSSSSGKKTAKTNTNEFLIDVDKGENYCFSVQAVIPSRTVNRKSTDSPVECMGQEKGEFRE
# Human factor Xa = Human factor Xa (Homo sapiens, UniProt P00742)
# Sequence of Human factor Xa (P00742 235-488 limits assumed): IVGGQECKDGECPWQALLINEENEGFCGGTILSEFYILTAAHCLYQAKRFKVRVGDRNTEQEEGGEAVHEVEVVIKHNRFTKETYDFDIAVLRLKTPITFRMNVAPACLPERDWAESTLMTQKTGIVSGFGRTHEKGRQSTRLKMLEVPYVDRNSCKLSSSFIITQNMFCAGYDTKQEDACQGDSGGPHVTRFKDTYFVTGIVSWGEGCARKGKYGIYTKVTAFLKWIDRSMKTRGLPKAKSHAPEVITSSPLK
# Sequence of Human factor Xa (P00742 41-179 limits assumed): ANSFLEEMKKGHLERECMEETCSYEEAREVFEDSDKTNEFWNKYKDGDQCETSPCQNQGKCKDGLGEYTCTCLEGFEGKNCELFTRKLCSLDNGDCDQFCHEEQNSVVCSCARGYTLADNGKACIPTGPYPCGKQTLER
# [1] = read-out: IC50 or % Inhibition TF-VIIa (30 µM); cells given as a plain number (IC50)
# [2] = cells given as a plain number (IC50); read-out: IC50 or % Inhibition TF-VIIa (30 µM)
# [3] = read-out: IC50 or % Inhibition TF-VIIa (30 µM); cells without % sign: IC50
# [4] = cells without % sign: IC50; read-out: IC50 or % Inhibition TF-VIIa (30 µM)
Structure (SMILES),IC50 or % Inhibition Factor Xa (30 µM) (Human factor Xa),pIC50 (TF-VIIa; [1]),also measured
N=C(N)c1ccc(CNC(=O)C(Cc2ccccc2)n2c(-c3ccccc3)c(Cl)nc(NCCc3ccccc3)c2=O)cc1 (stereo not shown) [1517-14],0%,–,IC50 or % Inhibition TF-VIIa (30 µM) (TF-VIIa): 30%
C[C@@H](C(=O)NCc1ccc(C(=N)N)cc1)n1c(-c2ccccc2)c(Cl)nc(NCCc2ccccc2)c1=O [1517-15],0%,5.51,–
CSCC(C(=O)NCc1ccc(C(=N)N)cc1)n1c(-c2ccccc2)c(Cl)nc(NCCc2ccccc2)c1=O (stereo not shown) [1517-16],0%,5.47,–
C[C@H](C(=O)NCc1ccc(C(=N)N)cc1)n1c(-c2ccccc2)c(Cl)nc(NCCc2ccccc2)c1=O [1517-17],0%,5.74,–
N=C(N)c1ccc(CNC(=O)Cn2c(-c3c(Cl)cccc3Cl)c(Cl)nc(NCCc3ccccc3)c2=O)cc1 [1517-18],0%,5.89,–
N=C(N)c1ccc(CNC(=O)Cn2c(-c3ccsc3)c(Cl)nc(NCCc3cccc(Cl)c3)c2=O)cc1 [1517-19],0%,6.05,–
N=C(N)c1ccc(CNC(=O)C(Cc2ccccc2)n2c(-c3ccccc3)c(Cl)nc(NCCc3cccc(Cl)c3)c2=O)cc1 (stereo not shown) [1517-20],0%,–,IC50 or % Inhibition TF-VIIa (30 µM) (TF-VIIa): 22%
C[C@H](C(=O)NCc1ccc(C(=N)N)cc1)n1c(-c2ccccc2)c(Cl)nc(NCCc2cccc(Cl)c2)c1=O [1517-23],0%,5.64,–
N=C(N)c1ccc(CNC(=O)Cn2c(-c3c(Cl)cccc3Cl)c(Cl)nc(NCCc3cccc(Cl)c3)c2=O)cc1 [1517-24],0%,5.74,–
N=C(N)c1ccc(CNC(=O)Cn2c(-c3ccccc3)c(Cl)nc(NC3CCCCC3)c2=O)cc1 [1517-25],0%,–,pIC50 (TF-VIIa; [2]): 5.85
CCCC(CCC)Nc1nc(Cl)c(-c2ccccc2)n(CC(=O)NCc2ccc(C(=N)N)cc2)c1=O [1517-26],0%,–,pIC50 (TF-VIIa; [2]): 5.74
CC(C)N(C)c1nc(Cl)c(-c2ccccc2)n(CC(=O)NCc2ccc(C(=N)N)cc2)c1=O [1517-31],0%,–,pIC50 (TF-VIIa; [2]): 5.04
CCCNc1nc(Cl)c(-c2ccccc2)n(CC(=O)NCc2ccc(C(=N)N)cc2)c1=O [1517-33],0%,–,pIC50 (TF-VIIa; [2]): 6.40
C[Si](C)(C)CNc1nc(Cl)c(-c2ccccc2)n(CC(=O)NCc2ccc(C(=N)N)cc2)c1=O [1517-36],0%,5.52,–
N=C(N)c1ccc(CNC(=O)Cn2c(-c3ccccc3)c(Cl)nc(NCC3CC3)c2=O)cc1 [1517-43],0%,–,IC50 or % Inhibition TF-VIIa (30 µM) (TF-VIIa): 25%
CCCCCNc1nc(Cl)c(-c2ccccc2)n(CC(=O)NCc2ccc(C(=N)N)cc2)c1=O [1517-48],0%,5.92,–
N=C(N)c1ccc(CNC(=O)Cn2c(-c3cccc(N)c3)c(Cl)nc(NCCN3CCCC3)c2=O)cc1 [1543-03],34%,–,pIC50 (TF-VIIa; [3]): 6.19
CNc1nc(Cl)c(-c2cccc(N)c2)n(CC(=O)NCc2ccc(C(=N)N)cc2)c1=O [1543-05],14%,–,pIC50 (TF-VIIa; [4]): 7.22
N=C(N)c1ccc(CNC(=O)Cn2c(-c3cccc(N)c3)c(Cl)nc(NCCCn3ccnc3)c2=O)cc1 [1543-07],19%,–,pIC50 (TF-VIIa; [3]): 6.68
CN(C)CCNc1nc(Cl)c(-c2cccc(N)c2)n(CC(=O)NCc2ccc(C(=N)N)cc2)c1=O [1543-09],12%,–,pIC50 (TF-VIIa; [4]): 6.16
N=C(N)c1ccc(CNC(=O)Cn2c(-c3cccc(N)c3)c(Cl)nc(NCCCO)c2=O)cc1 [1543-13],12%,–,pIC50 (TF-VIIa; [4]): 7.05
N=C(N)c1ccc(CNC(=O)Cn2c(-c3cccc(N)c3)c(Cl)nc(NCCN3CCCCC3)c2=O)cc1 [1543-15],41%,–,pIC50 (TF-VIIa; [3]): 6.02
CC(CNc1nc(Cl)c(-c2cccc(N)c2)n(CC(=O)NCc2ccc(C(=N)N)cc2)c1=O)N(C)C (stereo not shown) [1543-19],11%,–,pIC50 (TF-VIIa; [3]): 6.66
N=C(N)c1ccc(CNC(=O)Cn2c(-c3cccc(N)c3)c(Cl)nc(NCCCCN3CCCC3)c2=O)cc1 [1543-21],27%,–,pIC50 (TF-VIIa; [3]): 6.54

Structure (SMILES),IC50 or % Inhibition Factor Xa (30 µM) (Human factor Xa),pIC50 (TF-VIIa; [1]),also measured
N=C(N)c1ccc(CNC(=O)Cn2c(-c3cccc(N)c3)c(Cl)nc(NCCCN3CCCC3)c2=O)cc1 [1543-27],27%,–,pIC50 (TF-VIIa; [3]): 6.42
CCNc1nc(Cl)c(-c2cccc(N)c2)n(CC(=O)NCc2ccc(C(=N)N)cc2F)c1=O [1543-31],8%,–,pIC50 (TF-VIIa; [3]): 7.40
N=C(N)c1ccc(CNC(=O)Cn2c(-c3cccc(N)c3)c(Cl)nc(NC3CC3)c2=O)c(F)c1 [1543-33],14%,–,pIC50 (TF-VIIa; [3]): 7.52
N=C(N)c1ccc(CNC(=O)Cn2c(-c3cccc(N)c3)c(Cl)nc(NC3CCCC3)c2=O)c(F)c1 [1543-34],20%,–,pIC50 (TF-VIIa; [3]): 7.10
CCCNc1nc(Cl)c(-c2cccc(N)c2)n(CC(=O)NCc2ccc(C(=N)N)cc2F)c1=O [1543-35],8%,–,pIC50 (TF-VIIa; [3]): 7.15
CCCCNc1nc(Cl)c(-c2cccc(N)c2)n(CC(=O)NCc2ccc(C(=N)N)cc2F)c1=O [1543-36],15%,–,pIC50 (TF-VIIa; [3]): 7.10
CC(C)CNc1nc(Cl)c(-c2cccc(N)c2)n(CC(=O)NCc2ccc(C(=N)N)cc2F)c1=O [1543-38],14%,–,pIC50 (TF-VIIa; [3]): 7.05
CC(C)Nc1nc(Cl)c(-c2cccc(N)c2)n(CC(=O)NCc2ccc(C(=N)N)cc2F)c1=O [1543-40],10%,–,pIC50 (TF-VIIa; [3]): 7.40
N=C(N)c1ccc(CNC(=O)Cn2c(Cc3ccccc3)c(Cl)nc(NCCc3ccccc3)c2=O)cc1 [Example 20],6%@30,–,IC50 or % Inhibition TF-VIIa (30 µM) (TF-VIIa): 41%@30
N=C(N)NCC#CCNC(=O)Cn1c(-c2ccccc2)cnc(NCCc2ccccc2)c1=O [Example 36],0%,–,IC50 or % Inhibition TF-VIIa (30 µM) (TF-VIIa): 5%
N=C(N)NC/C=C\CNC(=O)Cn1c(-c2ccccc2)cnc(NCCc2ccccc2)c1=O [Example 37],0%,5.74,–
Nc1n[nH]c2ccc(CNC(=O)Cn3c(-c4ccccc4)cnc(NCCc4ccccc4)c3=O)cc12 [Example 38],22%,6.05,–
Nc1n[nH]c2cc(CNC(=O)Cn3c(-c4ccccc4)cnc(NCCc4ccccc4)c3=O)ccc12 [Example 39],0%,5.77,–
N=C(N)c1ccc(CNC(=O)Cn2c(-c3cccc(N)c3)c(Cl)nc(NC3CCC3)c2=O)cc1F [Example 40],0%,–,pIC50 (TF-VIIa; [2]): 7.22
CC(C)Nc1nc(Cl)c(-c2cccc(N)c2)n(CC(=O)NCc2ccc(C(=N)N)c(F)c2)c1=O [Example 42],0%,6.30,–
CC(C)Nc1ncc(-c2cccc(N)c2)n(CC(=O)NCc2ccc(C(=N)N)c(F)c2)c1=O [Example 43],0%,6.60,–
CC(C)Nc1nc(Cl)c(-c2cccc([N+](=O)[O-])c2)n(CC(=O)NCc2ccc(C(N)=NO)cc2)c1=O [Example 61],0%,–,IC50 or % Inhibition TF-VIIa (30 µM) (TF-VIIa): 1%
CC(C)Nc1nc(Cl)c(-c2cccc(N)c2)n(CC(=O)NCCc2ccc(C(=N)N)cc2)c1=O [Example 62],10%,5.25,–
COC(=O)c1cccc(-c2c(Cl)nc(NC(C)C)c(=O)n2CC(=O)NCc2ccc(C(=N)N)cc2)c1 [Example 64],19%,–,pIC50 (TF-VIIa; [2]): 6.11
CC(C)Nc1nc(Cl)c(-c2cccc(C(=O)O)c2)n(CC(=O)NCc2ccc(C(=N)N)cc2)c1=O [Example 65],12%,–,pIC50 (TF-VIIa; [2]): 6.44
N=C(N)c1ccc(CNC(=O)Cn2c(-c3ccccc3O)c(Cl)nc(NC3CCC3)c2=O)cc1 [Example 66],0%,–,pIC50 (TF-VIIa; [2]): 6.47
CC(=O)Nc1cccc(-c2c(Cl)nc(NC(C)C)c(=O)n2CC(=O)NCCc2ccc(C(=N)N)cc2)c1 [Example 68],6%,–,IC50 or % Inhibition TF-VIIa (30 µM) (TF-VIIa): 32%
Cc1c(Cl)nc(NCc2ccccc2)c(=O)n1CC(=O)NCCc1ccncc1 [Example E-0001],–,–,% Inhibition TF-VIIa (100 µM) (TF-VIIa): 0%; % Inhibition Factor Xa (100 µM) (Human factor Xa): 1%
